The values that follow come from the supplement of paper PMC10307832.

What all share (test): relative viability (nuclei count vs DMSO), 5 days (fraction); higher = more cells survive
Compound in assay [1]: C1CNCCC1C2=CC(=NN2)C3=CC=NC=C3 + Cc1nc(Nc2ncc(C(=O)Nc3c(C)cccc3Cl)s2)cc(N2CCN(CCO)CC2)n1 [Dasatinib] (partner 0.075 µM)
A digest of the protocol:
(§1)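 Lung cancer cell lines in 1536-well plates got either a single drug or a fixed anchor-drug dose together with five library-drug doses (not always all listed) in √10 steps, by pin tool, on the day after seeding. Nuclei were counted after 5 days, and relative viability is the treated-to-vehicle ratio of nuclei counts. Values are medians of duplicate plates.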

Compound in assay [2]: C[C@@H](N)c1ccc(C(=O)Nc2ccnc3[nH]ccc23)cc1 + CC(=O)c1c(C)c2cnc(Nc3ccc(N4CCNCC4)cn3)nc2n(C2CCCC2)c1=O [Palbociclib] (partner 0.5 µM)
In a few lines:
as §1

Compound in assay [3]: C[C@@H](N)c1ccc(C(=O)Nc2ccnc3[nH]ccc23)cc1 + CC1(C)CCC(c2ccc(Cl)cc2)=C(CN2CCN(c3ccc(C(=O)NS(=O)(=O)c4ccc(N[C@H](CCN5CCOCC5)CSc5ccccc5)c(S(=O)(=O)C(F)(F)F)c4)cc3)CC2)C1 [Navitoclax] (partner 0.5 µM)
A digest of the protocol:
as §1

Compound in the assay “Tanzisertib + AZD7762”: O[C@H]1CC[C@H](Nc2ncc3nc(Nc4c(F)cc(F)cc4F)n([C@H]4CCOC4)c3n2)CC1 [Tanzisertib] + NC(=O)Nc1cc(-c2cccc(F)c2)sc1C(=O)N[C@H]1CCCNC1 [AZD7762] (partner 0.2 µM)
In a few lines:
as §1

On to LK-2, for which the relative viability is 0.236 in assay [1] (first compound 0.08 µM); 0.388 in assay [1] (first compound 0.8 µM); 0.275 in assay [1] (first compound 2.53 µM); 0.482 in assay [1] (first compound 8 µM); 0.826 in assay [2] (first compound 0.04 µM); 0.7 in assay [2] (first compound 0.1265 µM). Moreover, the relative viability stood at 0.655 in assay [2] (first compound 0.4 µM); 0.485 in assay [2] (first compound 1.265 µM); 0.912 in assay [2] (first compound 4 µM); 0.976 in assay [3] (first compound 0.04 µM); 1.18 in assay [3] (first compound 0.1265 µM); 0.927 in assay [3] (first compound 0.4 µM). The relative viability in assay [3] (first compound 1.265 µM) was 0.82; in assay [3] (first compound 4 µM), 0.762; in the assay with Tanzisertib + AZD7762 (first compound 0.08 µM) it was 0.41; with Tanzisertib + AZD7762 (first compound 0.253 µM), 0.455; with Tanzisertib + AZD7762 (first compound 0.8 µM) it was 0.421; with Tanzisertib + AZD7762 (first compound 2.53 µM), 0.32. In addition, the relative viability with Tanzisertib + AZD7762 (first compound 8 µM) was 0.346.
Turning to LOU-NH91, the relative viability in assay [1] (first compound 0.08 µM) was 0.527; in assay [1] (first compound 0.8 µM), 0.572; in assay [1] (first compound 2.53 µM), 0.624; in assay [1] (first compound 8 µM) it was 0.545; in assay [2] (first compound 0.04 µM), 0.581; in assay [2] (first compound 0.1265 µM), 0.527. The relative viability in assay [2] (first compound 0.4 µM) was determined as 0.533; in assay [2] (first compound 1.265 µM), 0.536; in assay [2] (first compound 4 µM), 0.448; in assay [3] (first compound 0.04 µM), 0.61; in assay [3] (first compound 0.1265 µM) it was 0.679; in assay [3] (first compound 0.4 µM) it was 0.602. The relative viability was found to be 0.615 in assay [3] (first compound 1.265 µM); 0.615 in assay [3] (first compound 4 µM); 0.781 with Tanzisertib + AZD7762 (first compound 0.08 µM); 0.782 with Tanzisertib + AZD7762 (first compound 0.253 µM); 0.806 with Tanzisertib + AZD7762 (first compound 0.8 µM); 0.746 with Tanzisertib + AZD7762 (first compound 2.53 µM). Also, the relative viability in the assay with Tanzisertib + AZD7762 (first compound 8 µM) came to 0.676.
As for LU99A, the relative viability in assay [1] (first compound 0.08 µM) was found to be 0.522; in assay [1] (first compound 0.8 µM), 0.744; in assay [1] (first compound 2.53 µM), 0.836; in assay [1] (first compound 8 µM), 0.645; in assay [2] (first compound 0.1265 µM), 0.372; in assay [2] (first compound 0.4 µM) it was 0.387. Besides, the relative viability worked out at 0.343 in assay [2] (first compound 1.265 µM); 0.275 in assay [2] (first compound 4 µM); 0.834 in assay [3] (first compound 0.04 µM); 0.851 in assay [3] (first compound 0.1265 µM); 0.967 in assay [3] (first compound 0.4 µM); 0.839 in assay [3] (first compound 1.265 µM). In addition, the relative viability in assay [3] (first compound 4 µM) was 0.798; with Tanzisertib + AZD7762 (first compound 0.08 µM), 0.299; in the assay with Tanzisertib + AZD7762 (first compound 0.253 µM), 0.42; with Tanzisertib + AZD7762 (first compound 0.8 µM) it was 0.431; with Tanzisertib + AZD7762 (first compound 2.53 µM) it was 0.322; in the assay with Tanzisertib + AZD7762 (first compound 8 µM), 0.407.
Consider LXF-289, for which the relative viability in assay [1] (first compound 0.08 µM) stood at 0.267; in assay [1] (first compound 0.8 µM) it was 0.184; in assay [1] (first compound 2.53 µM) it was 0.228; in assay [1] (first compound 8 µM), 0.185; in assay [2] (first compound 0.04 µM), 0.613; in assay [2] (first compound 0.1265 µM) it was 0.611. The relative viability in assay [2] (first compound 0.4 µM) was found to be 0.565; in assay [2] (first compound 1.265 µM), 0.61; in assay [2] (first compound 4 µM), 0.512; in assay [3] (first compound 0.04 µM), 1.01; in assay [3] (first compound 0.1265 µM), 0.915; in assay [3] (first compound 0.4 µM), 1.02. The relative viability stood at 1.07 in assay [3] (first compound 1.265 µM); 0.876 in assay [3] (first compound 4 µM); 1.21 with Tanzisertib + AZD7762 (first compound 0.08 µM); 1.09 with Tanzisertib + AZD7762 (first compound 0.253 µM); 1.19 with Tanzisertib + AZD7762 (first compound 0.8 µM); 1.1 in the assay with Tanzisertib + AZD7762 (first compound 2.53 µM). Also, the relative viability with Tanzisertib + AZD7762 (first compound 8 µM) was 1.12.
NCI-H23: the relative viability is 0.826 in assay [1] (first compound 0.08 µM); 0.808 in assay [1] (first compound 0.8 µM); 0.805 in assay [1] (first compound 2.53 µM); 0.908 in assay [1] (first compound 8 µM); 0.532 in assay [2] (first compound 0.04 µM); 0.644 in assay [2] (first compound 0.1265 µM). Moreover, the relative viability came to 0.545 in assay [2] (first compound 0.4 µM); 0.441 in assay [2] (first compound 4 µM); 1.06 in assay [3] (first compound 0.04 µM); 0.963 in assay [3] (first compound 0.1265 µM); 0.986 in assay [3] (first compound 0.4 µM); 0.582 in assay [3] (first compound 4 µM). Moreover, the relative viability in the assay with Tanzisertib + AZD7762 (first compound 0.08 µM) is 0.224; with Tanzisertib + AZD7762 (first compound 0.253 µM), 0.245; with Tanzisertib + AZD7762 (first compound 0.8 µM), 0.236; with Tanzisertib + AZD7762 (first compound 2.53 µM), 0.317; with Tanzisertib + AZD7762 (first compound 8 µM), 0.214.
For NCI-H322M, the relative viability in assay [1] (first compound 0.08 µM) stood at 0.24; in assay [1] (first compound 0.8 µM) it was 0.228; in assay [1] (first compound 2.53 µM), 0.247; in assay [1] (first compound 8 µM) it was 0.282; in assay [2] (first compound 0.04 µM), 0.534; in assay [2] (first compound 0.1265 µM), 0.584. Moreover, the relative viability came to 0.526 in assay [2] (first compound 0.4 µM); 0.515 in assay [2] (first compound 1.265 µM); 0.524 in assay [2] (first compound 4 µM); 1.2 in assay [3] (first compound 0.04 µM); 1.21 in assay [3] (first compound 0.1265 µM); 1.36 in assay [3] (first compound 0.4 µM). The relative viability in assay [3] (first compound 4 µM) turned out to be 1.55; in the assay with Tanzisertib + AZD7762 (first compound 0.08 µM), 0.567; with Tanzisertib + AZD7762 (first compound 0.253 µM) it was 0.547; in the assay with Tanzisertib + AZD7762 (first compound 0.8 µM) it was 0.547; with Tanzisertib + AZD7762 (first compound 2.53 µM) it was 0.527; with Tanzisertib + AZD7762 (first compound 8 µM) it was 0.492.
NCI-H441: the relative viability in assay [1] (first compound 0.08 µM) stood at 0.465; in assay [1] (first compound 0.8 µM), 0.673; in assay [1] (first compound 2.53 µM), 0.797; in assay [1] (first compound 8 µM), 0.576; in assay [2] (first compound 0.04 µM), 0.233; in assay [2] (first compound 0.1265 µM), 0.265. Also, the relative viability is 0.25 in assay [2] (first compound 0.4 µM); 0.237 in assay [2] (first compound 1.265 µM); 0.263 in assay [2] (first compound 4 µM); 0.571 in assay [3] (first compound 0.04 µM); 0.546 in assay [3] (first compound 0.1265 µM); 0.477 in assay [3] (first compound 0.4 µM). Besides, the relative viability in assay [3] (first compound 1.265 µM) worked out at 0.624; in assay [3] (first compound 4 µM) it was 0.571; with Tanzisertib + AZD7762 (first compound 0.08 µM), 1.21; with Tanzisertib + AZD7762 (first compound 0.253 µM) it was 0.989; in the assay with Tanzisertib + AZD7762 (first compound 0.8 µM) it was 1.07; with Tanzisertib + AZD7762 (first compound 2.53 µM) it was 1.11. Moreover, the relative viability with Tanzisertib + AZD7762 (first compound 8 µM) amounted to 1.08.
Turning to NCI-H460, the relative viability stood at 0.387 in assay [1] (first compound 0.08 µM); 0.454 in assay [1] (first compound 0.8 µM); 0.537 in assay [1] (first compound 2.53 µM); 0.529 in assay [1] (first compound 8 µM); 0.076 in assay [2] (first compound 0.04 µM); 0.183 in assay [2] (first compound 0.1265 µM). Besides, the relative viability in assay [2] (first compound 0.4 µM) amounted to 0.343; in assay [2] (first compound 1.265 µM), 0.154; in assay [2] (first compound 4 µM), 0.224; in assay [3] (first compound 0.04 µM), 1.16; in assay [3] (first compound 0.1265 µM), 1.08; in assay [3] (first compound 0.4 µM), 1.22. For the same cell line, the relative viability in assay [3] (first compound 1.265 µM) worked out at 1.14; in assay [3] (first compound 4 µM), 0.825; with Tanzisertib + AZD7762 (first compound 0.08 µM) it was 0.661; with Tanzisertib + AZD7762 (first compound 0.253 µM), 0.627; with Tanzisertib + AZD7762 (first compound 0.8 µM), 0.591; with Tanzisertib + AZD7762 (first compound 2.53 µM), 0.63. In addition, in the assay with Tanzisertib + AZD7762 (first compound 8 µM), the relative viability was 0.628.
